{
  "source": "patent US12173309B2",
  "about": "“Compounds for increasing genome editing efficiency” (Max-Planck-Gesellschaft zur Förderung der Wissenschaften …, priority 2017, dated 2024)",
  "key": {"[1]": {"tested_on": "409-B2 iCRISPR-Cas9 iPSCs", "assay": "PGE efficiency with iCRISPR Cas9 and ssODN donors", "type": "cell-based, human", "protocol": "(§1) FIG. 1: Genome editing and analysis flowchart. iCRISPR 409-B2 iPSCs are treated with 2 μg/ml doxycycline at least for 2 days to induce Cas9 or Cas9D10A expression. Reverse transfection with RNAiMAX, gRNA (7.5 nM each), ssODN (10 nM) and the small molecules to be evaluated is carried out in a 96 well plate for 1 day. The amount of cells used gives ˜80% confluency. Cells are then expanded for 3 days with regular media change. After harvest follows DNA extraction, PCR amplification of targeted loci, Illumina sequencing and CRISPResso (Pinello et al. 2016) sequence analysis for amount of indels and precise genome editing.\n(§2) Cells were incubated with media containing 2 μg/ml doxycycline (Clontech, 631311) 2 days prior to lipofection. Lipofection (reverse transfection) was done using the alt-CRISPR manufacturer's protocol (IDT) with a final concentration of 7.5 nM of each gRNA and 10 nM of the respective ssODN. In brief, 0.75 μl RNAiMAX (Invitrogen, 13778075) and the respective oligonucleotides were separately diluted in 25 μl OPTI-MEM (Gibco, 1985-062) each and incubated at room temperature for 5 min. Both dilutions were mixed to yield 50 μl of OPTI-MEM including RNAiMAX, gRNAs and ssODNs. The lipofection mix was incubated for 20-30 min at room temperature. During incubation cells were dissociated using EDTA for 5 min and counted using the Countess Automated Cell Counter (Invitrogen). The lipofection mix, 100 μl containing 25.000 dissociated cells in mTeSR1 supplemented with Y-27632, 2 μg/ml doxycycline and the respective small molecule(s) to be tested were throughoutly mixed and put in one well of a 96 well covered with Matrigel Matrix (Corning, 35248). Media was exchanged to regular mTeSR1 media after 24 hours.\n(§3) Three days after lipofection cells were dissociated using Accutase (SIGMA, A6964), pelleted, and resuspended in 15 μl QuickExtract (Epicentre, QE0905T). Incubation at 65° C. for 10 min, 68° C. for 5 min and finally 98° C. for 5 min was performed to yield ssDNA as a PCR template. Primers for each targeted loci of CALD1, KATNA1 and SLITRK1 containing adapters for Illumina sequencing were ordered from IDT (Coralville, USA). PCR was done in a T100 Thermal Cycler (Bio-Rad) using the KAPA2G Robust PCR Kit (Peqlab, 07-KK5532-03) with supplied buffer B and 3 μl of cell extract in a total volume of 25 μl. The thermal cycling profile of the PCR was: 95° C. 3 min; 34×(95° 15 sec, 65° C. 15 sec, 72° C. 15 sec); 72° C. 60 sec. P5 and P7 Illumina adapters with sample specific indices were added in a second PCR reaction (Kircher et al. 2012) using Phusion HF MasterMix (Thermo Scientific, F-531L) and 0.3 μl of the first PCR product. The thermal cycling profile of the PCR was: 98° C. 30 sec; 25× (98° 10 sec, 58° C. 10 sec, 72° C. 20 sec); 72° C. 5 min. Amplifications were verified by size separating agarose gel electrophoresis using EX gels (Invitrogen, G4010-11). The indexed amplicons were purified using Solid Phase Reversible Immobilization (SPRI) beads (Meyer, Kircher 2010). Double-indexed libraries were sequenced on a MiSeq (Illumina) giving paired-end sequences of 2×150 bp. After base calling using Bustard (Illumina) adapters were trimmed using leeHom (Renaud et al. 2014).\n(§4) CRISPresso (Pinello et al. 2016) was used to analyse sequencing data from CRISPR genome editing experiments for percentage of wildtype, targeted nucleotide substitutions (TNS), indels and mix of TNS and indels. Parameters used for analysis were ‘-w 20’, ‘--min_identity_score 70’ and ‘--ignore_substitutions’ (analysis was restricted to amplicons with a minimum of 70% similarity to the wildtype sequence and to a window of 20 bp from each gRNA; substitutions were ignored, as sequencing errors would be falsely characterized as NHEJ-events). Sequencing data from colonies after single cell seeding (FIGS. 3B and C) was further analyzed by evaluating the actual read sequences using SAMtools. Clonal colonies were differentiated from mixed colonies using sequence read proportions. […]"}, "[2]": {"tested_on": "409-B2 iCRISPR-Cas9D10A iPSCs", "assay": "Precise genome editing (PGE) efficiency with iCRISPR Cas9D10A double nicking and ssODN donors, Illumina sequencing/CRISPResso", "type": "cell-based, human", "details": "Cas9D10A; for PGE increase (mean change vs control): 20 μM NU7026, 0.01 μM TSA, 0.5 μM MLN4924, 5 μM NSC 15520, CRISPY mix = all four", "protocol": "as §1, §2, §3, §4"}, "[3]": {"details": "CALD1, 20 μM NU7026, 5 μM NSC 15520"}, "[4]": {"details": "KATNA1, 20 μM NU7026, 5 μM NSC 15520"}, "[5]": {"details": "SLITRK1, 20 μM NU7026, 5 μM NSC 15520"}},
  "data": [
    {"smiles": "NS(=O)(=O)OC[C@@H]1C[C@@H](n2ccc3c(N[C@H]4CCc5ccccc54)ncnc32)C[C@@H]1O", "note": "[MLN4924, Pevonedistat]", "values": [
      {"measurement": "effect on PGE frequency over CALD1, KATNA1 and SLITRK1 compared to controls", "setting": "[1]; 0.01 μM TSA, 0.5 μM MLN4924, 1 μM NSC 19630, 20 μM AICAR, 1 μM RS-1, 1 μM Resveratrol, 1 μM SCR7, 5 μM L755507, 5 μM STL127685, 20 μM B02", "result": "slight diminishing effect"},
      {"measurement": "PGE increase (mean change vs control)", "setting": "[2]; CALD1", "result": 1.2, "unit": "fold"},
      {"measurement": "additional increase in PGE on addition to the mix of NU7026 and TSA", "setting": "[2]; 0.5 μM MLN4924, p<0.01", "result": 1.3, "unit": "fold"},
      {"measurement": "PGE increase (mean change vs control)", "setting": "[2]; KATNA1", "result": 1.1, "unit": "fold"},
      {"measurement": "PGE increase (mean change vs control)", "setting": "[2]; SLITRK1", "result": 1.3, "unit": "fold"}
    ]},
    {"smiles": "CC(C)C1=CC23CCC4C(C)(C(=O)O)CCCC4(C)C2CC1C(C(=O)O)C3C(=O)O", "note": "(stereo not shown) [NSC 15520, Fumaropimaric acid]", "values": [
      {"measurement": "PGE increase (mean change vs control)", "setting": "[1]; [3]", "result": 1.3, "unit": "fold"},
      {"measurement": "PGE increase (mean change vs control)", "setting": "[1]; [4]", "result": "no effect"},
      {"measurement": "PGE increase (mean change vs control)", "setting": "[1]; [5]", "result": "no effect"},
      {"measurement": "PGE increase (mean change vs control)", "setting": "[2]; CALD1", "result": 1.4, "unit": "fold"},
      {"measurement": "effect on PGE of further addition to the mix of NU7026, TSA and MLN4924", "setting": "[2]; all loci, 5 μM NSC 15520, then 1 μM NSC 19630, 20 μM AICAR, 1 μM RS-1 (FIG. 5A)", "result": "slightly increased"},
      {"measurement": "PGE increase (mean change vs control)", "setting": "[2]; KATNA1", "result": "no effect"},
      {"measurement": "PGE increase (mean change vs control)", "setting": "[2]; SLITRK1", "result": "no effect"}
    ]},
    {"smiles": "O=c1cc(N2CCOCC2)oc2c1ccc1ccccc12", "note": "[NU7026]", "values": [
      {"measurement": "PGE increase (mean change vs control)", "setting": "[1]; [3]", "result": 1.5, "unit": "fold"},
      {"measurement": "PGE increase (mean change vs control)", "setting": "[1]; [4]", "result": 1.6, "unit": "fold"},
      {"measurement": "PGE increase (mean change vs control)", "setting": "[1]; [5]", "result": 1.2, "unit": "fold"},
      {"measurement": "PGE increase (mean change vs control)", "setting": "[2]; CALD1", "result": 1.5, "unit": "fold"},
      {"measurement": "higher PGE frequency than without the molecules", "setting": "[2]; pooled across CALD1, KATNA1, SLITRK1 (FIG. 5A), p<0.001", "result": 2.3, "unit": "fold"},
      {"measurement": "PGE increase (mean change vs control)", "setting": "[2]; KATNA1", "result": 2.6, "unit": "fold"},
      {"measurement": "PGE increase (mean change vs control)", "setting": "[2]; SLITRK1", "result": 2.5, "unit": "fold"}
    ]}
  ]
}
